Measurements reported in patent US8881823B2, “Environmentally friendly low temperature breaker systems and related methods” (Halliburton Energy Services, Inc., priority 2011, dated 2014).
Where two headings read alike, the source gives them in different places.

Legend:
[1] = Biodegradability, OECD 301 D Closed Bottle Test
Source text: The same protocol was used to test EDTA (“DISSOLVINE AM3-40” available from AkzoNobel Corporate) and sodium acetate.

[2] = Miscibility and pH of breaker systems in fresh water; assay type: physicochemical; conditions: breaker system in fresh water, 150° F. for 16 hours
Method: Several chelating agents and acids (breaker systems) were tested for their calcium carbonate dissolving capacity and miscibility in fresh water. Tests of the breaker systems were performed by adding a known volume of breaker system to a volume of brine needed to fill 100 ml in a jar. The jars were then sealed and swirled to mix the components. Samples containing 5%, 10%, or 20% v/v of chelating agents and acids were prepared. The jars were then placed in a static oven at 150° F. for 16 hours. Afterwards, miscibility of the components was observed and the pH of each mixture was tabulated.

[3] = Initial and over time miscibility and pH in potassium formate brines; assay type: physicochemical; conditions: for After Static Aging: overnight 150° F.; for pH Final: static 16 hrs @ 150° F.
Method: Completion breaker solutions were to be tested at 5%, 10%, and 20% by volume concentrations in each of the brines. The initial miscibility and the miscibility after static aging overnight at 150° F. were observed. Also, the pH of the final mixes was measured. The different concentrations of the breaker solutions were prepared with fresh water and filtered through a 1.6 μm glass fiber filter prior to testing.
The tests were run by adding the appropriate volume of the test breaker (5%, 10%, or 20% by volume) to the volume of the test brine needed to total 100 ml in a 4 ounce jar, sealing it, and swirling to mix the components. Observation was noted of the compatibility of the components.

[4] = Calcite dissolving capacity of breaker systems; assay type: physicochemical; conditions: 2.5 g BARACARB 5 in 50 mL test fluid, one hour
Method: The calcite dissolving capacity of each breaker system was determined in the following manner. A known amount of a technical grade calcium carbonate (commercially available from Halliburton under the tradename “BARACARB 5”) was dried in an oven for 2 hours. […] The solution was subsequently filtered with a 1 micron fiber glass filter paper.

[5] = Compatibility and dissolution ability in potassium formate brine; assay type: physicochemical
Method: In this Example, the compatibility and dissolution ability of various breaker systems with formate brine were evaluated. […] For each sample a 20% v/v breaker sample was prepared in three different concentrations of potassium formate brine (11 ppg, 12 ppg, and 13 ppg).
To determine the compatibility of each breaker with the potassium formate brine, each sample was checked for the formation of formate salts. This precipitation was indicative of an incompatibility of the breaker system with the formate brine. Samples in which precipitation was observed are noted with an asterisk (*).
The dissolution ability of the breaker systems was also tested in the various concentration of formate brine. […] The jars were then dried in an 90° F. oven for 16 hours. After the elapsed time, the amount of carbonate that remained was weighed and tabulated. The difference in weight represented the amount of carbonate that was dissolved by the breaker system and/or precipitated out as a result of being incompatible with the formate brine.

[6] = Chemical oxygen demand (COD) test; assay type: physicochemical
Source text: Table 2 compares the biodegradability of GLDA and EDTA and summarizes chemical oxygen demand (COD) tests which indirectly measures the amount of organic compounds in water.

[7] = 5% by volume, potassium formate brine 11.0 lb/gal
[8] = 5% by volume, potassium formate brine 12.0 lb/gal
[9] = 5% by volume, potassium formate brine 13.0 lb/gal
[10] = 10% by volume, potassium formate brine 11.0 lb/gal
[11] = 10% by volume, potassium formate brine 12.0 lb/gal
[12] = 10% by volume, potassium formate brine 13.0 lb/gal
[13] = 20% by volume, potassium formate brine 11.0 lb/gal
[14] = 20% by volume, potassium formate brine 12.0 lb/gal
[15] = 15% (so in the source), potassium formate brine 13.0 lb/gal

## CC(=O)[O-].[Na+] [sodium acetate]
[1]; OECD 301D protocol
  biodegradability (in words): readily biodegradable

## Cl.NC(N)=O [Synthetic acid (HCl salt of urea), HCl salt of urea]
[2]
  pH: 0.88
[3]; [7]
  After Static Aging: Slight haze
  pH Final: 9.9
[3]; [8]
  Initial Observation: Clear, totally soluble
  After Static Aging: Very slight separation
  pH Final: 11.4
[3]; [9]
  After Static Aging: Hazy
  pH Final: 12.2
[3]; [10]
  pH Final: 7.0
[3]; [11]
  pH Final: 9.4
[3]; [12]
  pH Final: 11.0
[3]; [13]
  pH Final: 6.0
[3]; [14]
  pH Final: 7.0
[3]; 20% by volume, potassium formate brine 13.0 lb/gal
  pH Final: 7.5
[3]; tested concentrations, 11.0-13.0 lb/gal brines
  solubility / miscibility in the potassium formate brines: not soluble in the brines, but dispersed evenly

## O=C([O-])CC(NC(CC(=O)[O-])C(=O)[O-])C(=O)[O-].[Na+].[Na+].[Na+].[Na+] (stereo not drawn) [Iminodisuccinate, sodium salt]
[2]
  pH: 11.3
[4]
  % Carbonate Complexed or Dissolved: 5.2%
  Final Weight of BARACARB 5, g: 2.37 g

## N.N.O=C(O)CN(CCN(CC(=O)O)CC(=O)O)CC(=O)O [EDTA ammonium salt, reference compound]
[2]
  pH: 4.77
[4]
  % Carbonate Complexed or Dissolved: 38.4%
  Final Weight of BARACARB 5, g: 1.54 g
[3]; [7]
  Initial Observation: Clear, totally soluble
  After Static Aging: Clear, totally soluble †
  pH Final: 9.6
[3]; [8]
  Initial Observation: Clear, totally soluble
  After Static Aging: Clear, totally soluble †
  pH Final: 10.8
[3]; [9]
  Initial Observation: Clear, totally soluble
  After Static Aging: Clear, totally soluble †
  pH Final: 11.4
[3]; [10]
  Initial Observation: Clear, totally soluble
  After Static Aging: Clear, totally soluble †
  pH Final: 8.6
[3]; [11]
  Initial Observation: Clear, totally soluble
  After Static Aging: Clear, totally soluble †
  pH Final: 9.8
[3]; [12]
  Initial Observation: Clear, totally soluble
  After Static Aging: Clear, totally soluble †
  pH Final: 10.7
[3]; [15]
  Initial Observation: Clear, totally soluble
  After Static Aging: Clear, totally soluble †
  pH Final: 9.9
[3]; [13]
  Initial Observation: Clear, totally soluble
  After Static Aging: Clear, totally soluble †
  pH Final: 7.0
[3]; [14]
  Initial Observation: Clear, totally soluble
  After Static Aging: Clear, totally soluble †
  pH Final: 8.0

## O=C(O)CN(CCOCCOCCN(CC(=O)O)CC(=O)O)CC(=O)O [EGTA]
[2]
  pH: 11
[4]
  % Carbonate Complexed or Dissolved: 9.28%
  Final Weight of BARACARB 5, g: 2.32 g

## O=C(O)CN(CCO)CCN(CC(=O)O)CC(=O)O [HEDTA]
[1]
  biodegradability (in words): do not meet this standard

## O=C(O)CN(CCN(CC(=O)O)CC(=O)O)CC(=O)O [EDTA, reference compound]
[5]; 20% v/v breaker, 11, 12 and 13 ppg potassium formate, precipitation of formate salts = incompatible
  compatibility with the formate brine: only compatible with the formate brine at the lowest tested concentration
[5]; 20% v/v breaker, 11 ppg Potassium Formate
  % Dissolved or precipitated out: 92%
[5]; 20% v/v breaker, 11 ppg Potassium Formate, 2.5 g calcium carbonate, 16 hours, * = precipitation of formate salts
  Amount of carbonate remaining: 0.21 g
[5]; 20% v/v breaker, 12 ppg Potassium Formate
  % Dissolved or precipitated out: 89%
[5]; 20% v/v breaker, 12 ppg Potassium Formate, 2.5 g calcium carbonate, 16 hours, * = precipitation of formate salts
  Amount of carbonate remaining, g: 0.28* g
[5]; 20% v/v breaker, 13 ppg Potassium Formate
  % Dissolved or precipitated out: 56%
[5]; 20% v/v breaker, 13 ppg Potassium Formate, 2.5 g calcium carbonate, 16 hours, * = precipitation of formate salts
  Amount of carbonate remaining, g: 1.10* g
[6]
  COD: ~315 mg/g
[1]; OECD 301D protocol
  biodegradability (in words): do not meet this standard
[1]; Table 2
  Biodegradability: Difficult
